Assay results taken from paper PMC8844822, “SARM1 is a multi-functional NAD(P)ase with prominent base exchange activity, all regulated bymultiple physiologically relevant NAD metabolites” (iScience, 2022).
Like-named read-outs stand apart in the source and are kept apart here.

Assays:
[1] = target: T1, Aplysia californica ADP ribosyl cyclase (Aplysia californica, UniProt P29241)
T1 sequence (P29241 25-282): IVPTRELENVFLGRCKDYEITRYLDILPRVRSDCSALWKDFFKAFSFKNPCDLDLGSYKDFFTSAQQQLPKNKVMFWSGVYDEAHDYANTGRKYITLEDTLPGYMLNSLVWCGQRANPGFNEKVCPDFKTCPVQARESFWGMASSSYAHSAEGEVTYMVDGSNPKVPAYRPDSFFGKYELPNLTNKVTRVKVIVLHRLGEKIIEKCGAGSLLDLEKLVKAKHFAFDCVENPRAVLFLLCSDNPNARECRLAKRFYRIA
Protocol: (§1) hSARM1 species were routinely assayed by the NAD/NADH-Glo^TM Assay (Promega) while both Aplysia cyclase and CD38 were assayed by fluorometry using ϵNAD ([Orsomando et al., 2000]). […] Other reagents used in addition to, or in place of those above are detailed in text or in figure legends, for example metal ions, free bases, dinucleotide analogues, mononucleotides, and ribosides. Assays were all carried out at 25°C except for temperature studies. Reactions were stopped by HClO4/K2CO3 and analysed by C18-HPLC as reported ([Mori et al., 2014]). Only the acid labile NADH and NADPH were treated with 1 N NaOH and neutralized using 1:1 vol of 1.73 M KH2CO3 while the highly hydrophobic metabolites vacor, VAD, VMN and VR, were analysed by a modified C18-HPLC method ([Buonvicino et al., 2018]). Reaction products were quantified from peak areas (see Figure 2A) based on coelution with standards (except for cyclic products from NAD analogues that were not available and were attributed based on UV-spectra and retention times as predicted). Rates were calculated as follows. Hydrolysis and cyclization were measured from product generation from the respective individual dinucleotide substrate used, e.g., free and cyclic ADP-ribosyl moieties from NAD (Figure 1B). A basal value for hydrolysis/cyclization was taken as sum of these latter two products. In addition to that value, base exchange or transglycosidation was calculated from the expected dinucleotide analog formed in the presence of the corresponding free base, e.g., AcPyrAD from AcPyr and NAD.
(§2) The kinetic parameters were calculated from initial rates obtained from replicates via best-fitting analysis using the following Equation 1 for CD38 and Aplysia cyclase, or Equation 2 for hSARM1 SAM-TIR, or Equation 3 for hSARM1 full length(Equation 1) V =Vmax[S]/Km+[S] […] In that case, the resulting single curves were fit to Equation 3 as above to evaluate any competition between NMN and the substrate used (see Table 1).

[2] = target: T1, Aplysia californica ADP ribosyl cyclase; assay: Base exchange reactions at neutral pH (HPLC); type: biochemical; design: purchased Merck A8950; conditions: NAD […] alone or + AcPyr 2 mM / Vacor 0.5 mM / Na 2 mM
Protocol: (§3) Multiple time stops from individual assays as above were analyzed for linearity, then extents of hydrolysis (white bars), cyclization (red bars), or base exchange (black bars) were calculated from each corresponding product as shown in Figure 1B and STAR methods. […] See also Figures S3–S5, and Table S1
(§4) Rates were calculated as follows.

hSARM1 SAM-TIR [3] = target: T2, hSARM1 SAM-TIR (Homo sapiens, UniProt Q6SZW1); assay: Base exchange reactions at neutral pH (HPLC); type: biochemical; conditions: NAD […] alone or + AcPyr 2 mM / Vacor 0.5 mM / Na 2 mM
T2 construct: made in house
T2 sequence (Q6SZW1 409-724): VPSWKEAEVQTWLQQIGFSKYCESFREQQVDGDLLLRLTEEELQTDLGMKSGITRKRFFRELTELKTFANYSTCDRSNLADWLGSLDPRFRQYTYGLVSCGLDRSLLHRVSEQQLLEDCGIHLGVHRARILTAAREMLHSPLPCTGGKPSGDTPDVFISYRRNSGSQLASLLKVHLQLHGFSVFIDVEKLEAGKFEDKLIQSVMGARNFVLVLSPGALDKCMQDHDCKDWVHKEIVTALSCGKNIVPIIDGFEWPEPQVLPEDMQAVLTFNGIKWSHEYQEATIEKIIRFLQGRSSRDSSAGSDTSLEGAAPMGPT
Protocol: as §3, §4

hCD38 [4] = target: T3, hCD38 (Homo sapiens, UniProt P28907); assay: NAD(P)ase activity by HPLC (kinetics, substrates, metal ions); type: biochemical
T3 construct: a soluble fragment Val43-Ile300 with 6x-His tag at C terminus; 6xHis (C); purchased R&D Systems
T3 sequence (P28907 43-300): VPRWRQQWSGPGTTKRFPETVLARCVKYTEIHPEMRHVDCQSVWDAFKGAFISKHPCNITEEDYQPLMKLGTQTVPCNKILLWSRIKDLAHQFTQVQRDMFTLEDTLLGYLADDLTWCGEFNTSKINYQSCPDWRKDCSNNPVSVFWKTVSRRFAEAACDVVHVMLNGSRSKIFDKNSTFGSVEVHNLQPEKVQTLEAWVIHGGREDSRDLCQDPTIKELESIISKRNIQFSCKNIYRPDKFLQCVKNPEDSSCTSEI
Protocol: as §1, §2

hSARM1 full length [5] = target: T4, hSARM1 full length (Homo sapiens, UniProt Q6SZW1); assay: as above; type: biochemical; conditions: for basal rate: substrate alone […]
T4 construct: Human recombinant SARM1 full length proteins (wild-type and E642A mutant); made in house
T4 sequence (Q6SZW1 28-724): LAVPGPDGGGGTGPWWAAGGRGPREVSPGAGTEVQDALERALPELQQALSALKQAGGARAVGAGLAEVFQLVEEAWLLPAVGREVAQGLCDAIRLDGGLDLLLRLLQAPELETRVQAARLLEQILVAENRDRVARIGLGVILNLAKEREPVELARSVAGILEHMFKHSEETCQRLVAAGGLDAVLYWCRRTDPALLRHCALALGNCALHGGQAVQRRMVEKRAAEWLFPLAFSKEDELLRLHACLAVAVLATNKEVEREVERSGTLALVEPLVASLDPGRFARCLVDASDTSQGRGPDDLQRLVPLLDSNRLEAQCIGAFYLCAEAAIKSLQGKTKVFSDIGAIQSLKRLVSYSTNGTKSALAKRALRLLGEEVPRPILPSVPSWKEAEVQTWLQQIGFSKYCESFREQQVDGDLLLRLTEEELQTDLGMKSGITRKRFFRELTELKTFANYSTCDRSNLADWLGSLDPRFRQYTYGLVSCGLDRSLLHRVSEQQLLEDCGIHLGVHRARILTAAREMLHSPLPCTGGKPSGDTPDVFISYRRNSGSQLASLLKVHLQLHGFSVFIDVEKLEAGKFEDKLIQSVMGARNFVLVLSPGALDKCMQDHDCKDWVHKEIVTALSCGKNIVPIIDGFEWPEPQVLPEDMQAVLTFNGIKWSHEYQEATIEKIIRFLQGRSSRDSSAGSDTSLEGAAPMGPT
Protocol: as §1, §2

hCD38 [6] = target: T3, hCD38; assay: Base exchange reactions at neutral pH (HPLC); type: biochemical; conditions: NAD […] alone or + AcPyr 2 mM / Vacor 0.5 mM / Na 2 mM
Protocol: as §3, §1

hSARM1 full length [7] = target: T4, hSARM1 full length; assay: Base exchange reactions at neutral pH (HPLC); type: biochemical; conditions: hSARM1 full length, no trigger; NAD […] alone or + AcPyr 2 mM / Vacor 0.5 mM / Na 2 mM; pH 7.5
Protocol: as §3, §1

hSARM1 SAM-TIR [8] = target: T2, hSARM1 SAM-TIR; type: biochemical
Protocol: as §1, with “In addition to that value, base exchange or transglycosidation was calculated from the expected dinucleotide analog formed in the presence of the corresponding free base, e.g., AcPyrAD from AcPyr and NAD.” left out

NC(=O)c1ccc[n+]([C@@H]2O[C@H](COP(=O)([O-])OP(=O)(O)OC[C@H]3O[C@@H](n4cnc5c(N)ncnc54)[C@H](O)[C@@H]3O)[C@@H](O)[C@H]2O)c1 [NAD, nicotinamide adenine dinucleotide]
cyclization, share of NAD consumption [1]: > 98% | specific activity, basal NADase (hydrolysis or cyclization combined) ([1]; saturating NAD): ~50 U/mg | rate [2]: 14712 ±399 mU/mg | rate (hSARM1 SAM-TIR [3]): 342.4 ±56.3 mU/mg | hydrolysis, share of NAD consumption (hCD38 [4]; hCD38): > 98% | specific activity, basal NADase (hydrolysis or cyclization combined) (hCD38 [4]; hCD38, saturating NAD): ~7 U/mg | Ki (hSARM1 full length [5]; SARM1, read-out: Kia): ~300 µM | cyclization, share of total substrate consumption (hSARM1 full length [5]; hSARM1, no free pyridines): ~10% | hydrolysis, share of substrate consumption (hSARM1 full length [5]; hSARM1, no free pyridines): ~90% | specific activity, basal NADase (hydrolysis or cyclization combined) (hSARM1 full length [5]; hSARM1, saturating NAD): ~0.02 U/mg | basal rate (hSARM1 full length [5]; hSARM1 full length 14.6 µg/ml, 30 min, 25 °C (Figure S2)): 15.8 mU/mg | Kis (catalytic site) (hSARM1 full length [5]; hSARM1 full length +NMN 5μM, n=1): >8000 µM | Ki (hSARM1 full length [5]; hSARM1 full length +NMN 5μM, n=1, read-out: Kia (allosteric site)): 385 µM | Kis (catalytic site) (hSARM1 full length [5]; hSARM1 full length +NMN 10μM, n=1): >8000 µM | Ki (hSARM1 full length [5]; hSARM1 full length +NMN 10μM, n=1, read-out: Kia (allosteric site)): 415 µM | Kis (catalytic site) (hSARM1 full length [5]; hSARM1 full length +NMN 20μM, n=1): >8000 µM | Ki (hSARM1 full length [5]; hSARM1 full length +NMN 20μM, n=1, read-out: Kia (allosteric site)): 787 µM | Kis (catalytic site) (hSARM1 full length [5]; hSARM1 full length +NMN 50μM, n=1): >8000 µM | Ki (hSARM1 full length [5]; hSARM1 full length +NMN 50μM, n=1, read-out: Kia (allosteric site)): 1200 µM | basal rate (hSARM1 full length [5]; hSARM1 full length WT 5.4 µg/ml, 6 hours, 25 °C (Figure S3)): 26.4 mU/mg | Kis (inhibition, catalytic site on TIR domain) (hSARM1 full length [5]; hSARM1 full length, no NMN): >8000 µM | Ki (hSARM1 full length [5]; hSARM1 full length, no NMN, read-out: Kia (inhibition, allosteric site on ARM domain)): 324 ± 24.6 µM | NAD concentration at maximum NADase activity (hSARM1 full length [5]; hSARM1 full length, activity falls to almost zero at 4 mM): 0.25 mM | rate (hCD38 [6]): 7798 ±1624 mU/mg | rate (hSARM1 full length [7]): 21.8 ±0.30 mU/mg | Kis (inhibition, catalytic site) (hSARM1 SAM-TIR [8]): >8000 µM
